Patent publication US20230365537A1, “POLO LIKE KINASE 4 INHIBITORS” (ORIC Pharmaceuticals, Inc., priority 2021, published 2023)

Key:
[1] = target: human recombinant Aurora A (Homo sapiens (Human), UniProt O14965); assay: Aurora A Kinase Biochemical Assay (ADP-Glo); settings: ratio of Aurora A IC50 to PLK4 IC50 (selectivity)
Procedure: (§1) Activity of human recombinant Aurora A (ThermoFisher, cat #PR5935A) was measured by quantification of adenosine diphosphate (ADP) using the ADP-Glo Kinase Assay Kit (Promega, cat #V9102). […] 5 µL of 5.0 nM Aurora A in assay buffer (50 mM HEPES, pH 7.5, 0.01% Brij-35, 0.01% BSA, 10 mM MgCl2, 1 mM EGTA, 1 mM DTT) was added to the plates. Test compounds and Aurora A were incubated for 15 minutes at room temperature (RT). […] Reactions were stopped and the remaining ATP depleted by adding 10uL of ADP-Glo reagent (Promega, cat#V912B) and incubating for 40 minutes at RT. The simultaneous conversion of the remaining ADP to ATP and measurement of the newly synthesized ATP was achieved by addition of 20 µL Kinase Detection reagent (Promega, cat #V914B), incubation for 30 min at RT, and luminescence detection using the EnVision plate reader (PerkinElmer). […] The IC50 values reported in Table 2 were determined using four parameter non-linear regression curve fit.

human recombinant PLK4 = human recombinant PLK4 (Homo sapiens (Human), UniProt O00444); assay: PLK4 Biochemical Assay (ADP-Glo); settings: 0.5 nM PLK4, 8.0 µM ATP, 4.7 µM MBP, 6 hours at RT
Procedure: as §1, with “recombinant PLK4” for “recombinant Aurora A”, “cat #PV6396)” for “cat #PR5935A)”, “of 1.0” for “of 5.0”, “nM PLK4 protein” for “nM Aurora A”, “and PLK4” for “and Aurora A”, “adding 10 µL” for “adding 10uL”

[2] = target: human recombinant Aurora B (Homo sapiens (Human), UniProt Q96GD4); assay: Aurora B Kinase Biochemical Assay (ADP-Glo); settings: ratio of Aurora B IC50 to PLK4 IC50 (selectivity)
Procedure: as §1, with “Aurora B” for “Aurora A”, “cat #PR9210B)” for “cat #PR5935A)”, “of 20” for “of 5.0”

Sequence of human recombinant PLK4 (O00444 whole entry): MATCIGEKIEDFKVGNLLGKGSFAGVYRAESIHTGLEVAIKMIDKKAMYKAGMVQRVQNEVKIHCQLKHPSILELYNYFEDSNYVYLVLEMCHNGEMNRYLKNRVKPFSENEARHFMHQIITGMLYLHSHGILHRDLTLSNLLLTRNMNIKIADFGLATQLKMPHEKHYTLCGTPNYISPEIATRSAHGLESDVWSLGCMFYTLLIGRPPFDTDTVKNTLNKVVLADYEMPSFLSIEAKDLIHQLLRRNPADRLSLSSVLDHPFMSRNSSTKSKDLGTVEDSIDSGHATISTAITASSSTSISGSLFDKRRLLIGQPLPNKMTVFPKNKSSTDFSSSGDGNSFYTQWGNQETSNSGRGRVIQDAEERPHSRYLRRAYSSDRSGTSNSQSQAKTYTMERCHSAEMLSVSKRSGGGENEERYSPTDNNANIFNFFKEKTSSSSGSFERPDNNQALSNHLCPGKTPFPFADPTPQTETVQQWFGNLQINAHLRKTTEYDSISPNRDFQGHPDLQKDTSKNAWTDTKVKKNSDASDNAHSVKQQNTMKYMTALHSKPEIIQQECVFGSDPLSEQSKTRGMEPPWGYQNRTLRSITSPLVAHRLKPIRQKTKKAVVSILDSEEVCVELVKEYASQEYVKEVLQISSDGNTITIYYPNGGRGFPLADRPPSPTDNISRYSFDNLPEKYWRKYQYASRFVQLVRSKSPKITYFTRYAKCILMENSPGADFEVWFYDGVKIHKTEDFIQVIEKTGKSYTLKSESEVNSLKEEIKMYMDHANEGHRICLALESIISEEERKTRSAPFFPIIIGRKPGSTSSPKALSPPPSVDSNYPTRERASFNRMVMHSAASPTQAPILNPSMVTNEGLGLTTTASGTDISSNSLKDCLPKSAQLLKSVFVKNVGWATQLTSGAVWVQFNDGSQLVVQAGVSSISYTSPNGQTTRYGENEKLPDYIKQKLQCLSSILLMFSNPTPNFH
Sequence of human recombinant Aurora A (O14965 whole entry): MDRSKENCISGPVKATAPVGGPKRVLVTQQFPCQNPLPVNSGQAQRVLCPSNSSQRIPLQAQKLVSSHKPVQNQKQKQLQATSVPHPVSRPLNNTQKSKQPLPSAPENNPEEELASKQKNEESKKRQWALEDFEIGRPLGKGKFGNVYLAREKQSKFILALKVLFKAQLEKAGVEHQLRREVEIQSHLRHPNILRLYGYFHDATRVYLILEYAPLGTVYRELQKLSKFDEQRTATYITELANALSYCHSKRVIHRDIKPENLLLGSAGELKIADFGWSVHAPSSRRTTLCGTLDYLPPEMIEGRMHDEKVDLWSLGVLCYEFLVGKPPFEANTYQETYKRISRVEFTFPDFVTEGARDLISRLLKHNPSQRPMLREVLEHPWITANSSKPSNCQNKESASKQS
Sequence of human recombinant Aurora B (Q96GD4 whole entry): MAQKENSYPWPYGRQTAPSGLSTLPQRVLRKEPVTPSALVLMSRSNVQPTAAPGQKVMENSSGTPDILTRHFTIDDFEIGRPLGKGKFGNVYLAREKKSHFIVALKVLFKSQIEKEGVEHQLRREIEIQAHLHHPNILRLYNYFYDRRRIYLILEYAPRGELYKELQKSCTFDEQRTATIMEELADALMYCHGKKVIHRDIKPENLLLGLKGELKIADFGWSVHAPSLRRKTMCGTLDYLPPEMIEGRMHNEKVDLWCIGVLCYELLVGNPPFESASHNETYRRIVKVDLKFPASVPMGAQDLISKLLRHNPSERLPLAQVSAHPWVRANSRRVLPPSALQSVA

Row | Compound | [Aurora A IC50 (nM)]/[PLK4 IC50 (nM)] [1] | IC50 (human recombinant PLK4) [nM] | [Aurora B IC50 (nM)]/[PLK4 IC50 (nM)] [2]
1 | COc1ccc2c(c1)[C@]1(C[C@H]1c1ccc3c(Nc4cccc5c4OCC5)n[nH]c3c1)C(=O)N2 [Example 16, (1R,2S)-2-{3-[(2,3-dihydro-1-benzofuran-7-yl)amino]-1H-indazol-6-yl}-5′-methoxyspiro[cyclopropane-1,3′-indol]-2′(1′H)-one] | 605.6855 | 2.18 | 11.76
2 | COc1ccc2c(c1)[C@]1(C[C@H]1c1ccc3c(Nc4ncccc4OC)n[nH]c3c1)C(=O)N2 [Example 17, (1R,2S)-5′-methoxy-2-{3-[(3-methoxypyridin-2-yl)amino]-1H-indazol-6-yl}spiro[cyclopropane-1,3′-indol]-2′(1′H)-one] | 1145.911 | 4.3 | 34.9
3 | COc1ccc2c(c1)[C@]1(C[C@H]1c1ccc3c(Nc4cnn5c4OCC5)n[nH]c3c1)C(=O)N2 [Example 30, (1R,2S)-2-{3-[(2,3-dihydropyrazolo[5,1-b][1,3]oxazol-7-yl)amino]-1H-indazol-6-yl}-5′-methoxyspiro[cyclopropane-1,3′-indol]-2′(1′H)-one] | 36.2 | 31.2 | 6.188
4 | COc1ccc2c(c1)[C@]1(C[C@H]1c1ccc3c(Nc4cccc5c4OCC5=O)n[nH]c3c1)C(=O)N2 [Example 31, (1R,2S)-5′-methoxy-2-{3-[(3-oxo-2,3-dihydro-1-benzofuran-7-yl)amino]-1H-indazol-6-yl}spiro[cyclopropane-1,3′-indol]-2′(1′H)-one] | 207.053 | 3.02 | 22.17
5 | COc1ccc2c(c1)[C@]1(C[C@H]1c1ccc3c(Nc4nccc5c4OC[C@@H]5CO)n[nH]c3c1)C(=O)N2 [Example 33, (1R,2S)-2-(3-{[(3S)-3-(hydroxymethyl)-2,3-dihydrofuro[2,3-c]pyridin-7-yl]amino}-1H-indazol-6-yl)-5′-methoxyspiro[cyclopropane-1,3′-indol]-2′(1′H)-one] | 355.9465 | 5.91 | 8.474
6 | COc1ccc2c(c1)[C@]1(C[C@H]1c1ccc3c(Nc4cc(N5CC(O)C5)ncn4)n[nH]c3c1)C(=O)N2 [Example 36, (1R,2S)-2-(3-{[6-(3-hydroxyazetidin-1-yl)pyrimidin-4-yl]amino}-1H-indazol-6-yl)-5′-methoxyspiro[cyclopropane-1,3′-indol]-2′(1′H)-one] | 218.2083 | 6.17 | 5.701
7 | COc1ccc2c(c1)[C@]1(C[C@H]1c1ccc3c(Nc4ncnc(N5C6CCC5COC6)c4OC)n[nH]c3c1)C(=O)N2 [Example 37, (1R,2S)-2-(3-((6-(3-oxa-8-azabicydo[3.2.1]octan-8-yl)-5-methoxypyrimidin-4-yl)amino)-1H-indazol-6-yl)-5′-methoxyspiro[cydopropane-1,3′-indolin]-2′-one] | 1799.358 | 12.5 | 49.51
8 | COc1ccc2c(c1)[C@]1(C[C@H]1c1ccc3c(Nc4cc(N5CCCOCC5)ncn4)n[nH]c3c1)C(=O)N2 [Example 40, (1R,2S)-5′-methoxy-2-(3-{[6-(1,4-oxazepan-4-yl)pyrimidin-4-yl]amino}-1H-indazol-6-yl)spiro[cyclopropane-1,3′-indol]-2′(1′H)-one] | 67.06 | 15.2 | 2.783
9 | COc1ccc2c(c1)[C@]1(C[C@H]1c1ccc3c(Nc4ncnc(N5CCC5)c4OC)n[nH]c3c1)C(=O)N2 [Example 42, (1R,2S)-2-(3-{[6-(azetidin-1-yl)-5-methoxypyrimidin-4-yl]amino}-1H-indazol-6-yl)-5′-methoxyspiro[cyclopropane-1,3′-indol]-2′(1′H)-one] | 1053.808 | 36.2 | 42.3
10 | COc1ccc2c(c1)[C@]1(C[C@H]1c1ccc3c(Nc4ncnc(N5CC(O)C5)c4OC)n[nH]c3c1)C(=O)N2 [Example 43, (1R,2S)-2-(3-{[6-(3-hydroxyazetidin-1-yl)-5-methoxypyrimidin-4-yl]amino}-1H-indazol-6-yl)-5′-methoxyspiro[cyclopropane-1,3′-indol]-2′(1′H)-one] | 1347.136 | 14.5 | 21.9
11 | COc1ccc2c(c1)[C@]1(C[C@H]1c1ccc3c(Nc4cc(N5CCC5)ncn4)n[nH]c3c1)C(=O)N2 [Example 45, (1R,2S)-2-(3-{[6-(azetidin-1-yl)pyrimidin-4-yl]amino}-1H-indazol-6-yl)-5′-methoxyspiro[cyclopropane-1,3′-indol]-2′(1′H)-one] | 137.8309 | 15.5 | 4.603

Now from value to compound:

Row | [Aurora A IC50 (nM)]/[PLK4 IC50 (nM)] [1] | IC50 (human recombinant PLK4) [nM] | [Aurora B IC50 (nM)]/[PLK4 IC50 (nM)] [2] | Compound
12 | 249.6489 | 34.2 | 28.1 | COc1ccc2c(c1)[C@]1(C[C@H]1c1ccc3c(Nc4cn(C)nc4OC)n[nH]c3c1)C(=O)N2 [Example 25, (1R,2S)-5′-methoxy-2-{3-[(3-methoxy-1-methyl-1H-pyrazol-4-yl)amino]-1H-indazol-6-yl}spiro[cyclopropane-13′-indol]-2′(1′H)-one]
13 | 911.8842 | 3.94 | 17.5546 | COc1ccc2c(c1)[C@]1(C[C@H]1c1ccc3c(Nc4nccc5c4OCC5)n[nH]c3c1)C(=O)N2 [Example 32, (1R,2S)-2-{3-[(2,3-dihydrofuro[2,3-c]pyridin-7-yl)amino]-1H-indazol-6-yl}-5′-methoxyspiro[cyclopropane-1,3′-indol]-2′(1′H)-one]
14 | 67.3 | 7.53 | 2.162 | COc1ccc2c(c1)[C@]1(C[C@H]1c1ccc3c(Nc4cc(N5CC(OC)C5)ncn4)n[nH]c3c1)C(=O)N2 [Example 35, (1R,2S)-5′-methoxy-2-(3-{[6-(3-methoxyazetidin-1-yl)pyrimidin-4-yl]amino}-1H-indazol-6-yl)spiro[cyclopropane-1,3′-indol]-2′(1′H)-one]
15 | 43.69 | 14.1 | 2.761 | COc1ccc2c(c1)[C@]1(C[C@H]1c1ccc3c(Nc4cc(OCCO)ncn4)n[nH]c3c1)C(=O)N2 [Example 38, (1R,2S)-2-(3-{[6-(2-hydroxyethoxy)pyrimidin-4-yl]amino}-1H-indazol-6-yl)-5′-methoxyspiro[cyclopropane-1,3′-indol]-2′(1′H)-one]
16 | 30.38 | 26.4 | 1.018 | COc1ccc2c(c1)[C@]1(C[C@H]1c1ccc3c(Nc4cc(N5CCS(=O)(=O)CC5)ncn4)n[nH]c3c1)C(=O)N2 [Example 39, (1R,2S)-2-(3-((6-(1,1-dioxidothiomorpholino)pyrimidin-4-yl)amino)-1H-indazol-6-yl)-5′-methoxyspiro[cyclopropane-1,3′-indolin]-2′-one]
17 | 1269.119 | 20.7 | 45.11 | COc1ccc2c(c1)[C@]1(C[C@H]1c1ccc3c(Nc4ncnc(N5CCCOCC5)c4OC)n[nH]c3c1)C(=O)N2 [Example 44, (1R,2S)-5′-methoxy-2-(3-{[5-methoxy-6-(1,4-oxazepan-4-yl)pyrimidin-4-yl]amino}-1H-indazol-6-yl)spiro[cyclopropane-1,3′-indol]-2′(1′H)-one]
